# Test results from ChEMBL document CHEMBL5209589, “Membrane potential based transport assay for SLC1A3 using HEK293 JumpIn SLC1A3 OE cells” (2022).
# Target: Excitatory amino acid transporter 1 (Homo sapiens, UniProt P43003)
# Assay: Substrate uptake by the Excitatory Amino Acid Transporter 1 (EAAT1, SLC1A3) as assessed by the fluorescent FLIPR membrane potential dye in HEK-293 JumpIN-SLC1A3 cells (PubChem AID: 1745864)
# Assay type: functional, cell-based, HEK293
# Chain of Excitatory amino acid transporter 1 (P43003 whole entry): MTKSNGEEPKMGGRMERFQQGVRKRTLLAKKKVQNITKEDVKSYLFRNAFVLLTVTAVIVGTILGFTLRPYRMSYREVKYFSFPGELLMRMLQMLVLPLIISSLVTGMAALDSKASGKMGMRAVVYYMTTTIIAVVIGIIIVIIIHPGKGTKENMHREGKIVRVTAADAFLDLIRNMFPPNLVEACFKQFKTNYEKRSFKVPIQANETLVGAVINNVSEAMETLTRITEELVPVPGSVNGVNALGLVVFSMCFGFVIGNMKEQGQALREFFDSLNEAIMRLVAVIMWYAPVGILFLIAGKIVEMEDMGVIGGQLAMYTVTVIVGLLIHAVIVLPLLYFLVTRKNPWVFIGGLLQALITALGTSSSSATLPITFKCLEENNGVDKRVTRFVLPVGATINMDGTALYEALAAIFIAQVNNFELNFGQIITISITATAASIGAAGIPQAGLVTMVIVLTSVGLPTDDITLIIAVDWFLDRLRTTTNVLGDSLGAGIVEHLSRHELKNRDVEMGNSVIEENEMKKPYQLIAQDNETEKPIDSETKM
row,SMILES,EC50 [µM]
1,N[C@@H](CCC(=O)O)C(=O)O [GLUTAMIC ACID],16
2,N[C@@H](CS)C(=O)O [CYSTEINE],376
